Measurements: patent US7968557B2, “Substituted pyrrolo[2,3-2]pyrimidines as protein kinase inhibitors” (Novartis AG, priority 2004, dated 2011)
Read-outs that look alike come from different tables or passages of the source. Values belong to the molecule of their own block, whether it stands above or below them.

Assays:
Type in all cases: cell-based
[1] = biological target: T1, BCR-Abl (Homo sapiens, UniProt P00519); experiment: Inhibition of cellular BCR-Abl dependent proliferation (32D-p210 cells)
T1 construct: expressed in transfected cells; host or cells: murine 32D hemopoietic progenitor cells (32D-p210); the other entry of the earlier key: BCR (P11274, Breakpoint cluster region protein)
T1 sequence (P00519 229-512 limits assumed): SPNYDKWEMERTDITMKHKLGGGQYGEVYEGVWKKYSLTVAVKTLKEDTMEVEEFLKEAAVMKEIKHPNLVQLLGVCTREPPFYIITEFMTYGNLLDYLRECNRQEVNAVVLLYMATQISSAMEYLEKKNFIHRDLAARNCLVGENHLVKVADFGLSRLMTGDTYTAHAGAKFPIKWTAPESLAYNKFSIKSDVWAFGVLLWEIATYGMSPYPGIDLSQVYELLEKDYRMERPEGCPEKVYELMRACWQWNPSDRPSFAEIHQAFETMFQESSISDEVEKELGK
Experimental: Inhibition of Cellular BCR-Abl Dependent Proliferation (High Throughput Method)
The murine cell line used is the 32D hemopoietic progenitor cell line transformed with BCR-Abl cDNA (32D-p210). These cells are maintained in RPMI/10% fetal calf serum (RPMI/FCS) supplemented with penicillin 50 μg/mL, streptomycin 50 μg/mL and L-glutamine […]. Untransformed 32D cells are similarly maintained with the addition of 15% WEHI conditioned medium as a source of IL3.
50 μl of a 32D or 32D-p210 cells suspension are plated in Greiner 384 well microplates (black) at a density of 5000 cells per well. 50 nl of test compound (1 mM in DMSO stock solution) is added to each well (ST1571 is included as a positive control). The cells are incubated for 72 hours at 37° C., 5% CO2. 10 μl of a 60% Alamar Blue solution (Tek diagnostics) is added to each well and the cells are incubated for an additional 24 hours. The fluorescence intensity (Excitation at 530 nm, Emission at 580 nm) is quantified using the Acquest™ system (Molecular Devices).
Inhibition of Cellular BCR-Abl Dependent Proliferation
32D-p210 cells are plated into 96 well TC plates at a density of 15,000 cells per well. 50 μL of two fold serial dilutions of the test compound (Cmax is 40 μM) are added to each well (ST1571 is included as a positive control). […]

[2] = biological target: FGFR3 (Homo sapiens, UniProt P22607); experiment: IC50 for FGFR3 (method not described)
[3] = biological target: T2, FLT3-ITD (Homo sapiens, UniProt P36888, DUP592-605); experiment: Flt-3 inhibition, proliferation of Ba/F3-Flt3-ITD cells
T2 construct: expressed in transfected cells; host or cells: murine Ba/F3 cells, retroviral infection
T2 sequence (P36888 with tags, fused parts or gaps DUP592-605): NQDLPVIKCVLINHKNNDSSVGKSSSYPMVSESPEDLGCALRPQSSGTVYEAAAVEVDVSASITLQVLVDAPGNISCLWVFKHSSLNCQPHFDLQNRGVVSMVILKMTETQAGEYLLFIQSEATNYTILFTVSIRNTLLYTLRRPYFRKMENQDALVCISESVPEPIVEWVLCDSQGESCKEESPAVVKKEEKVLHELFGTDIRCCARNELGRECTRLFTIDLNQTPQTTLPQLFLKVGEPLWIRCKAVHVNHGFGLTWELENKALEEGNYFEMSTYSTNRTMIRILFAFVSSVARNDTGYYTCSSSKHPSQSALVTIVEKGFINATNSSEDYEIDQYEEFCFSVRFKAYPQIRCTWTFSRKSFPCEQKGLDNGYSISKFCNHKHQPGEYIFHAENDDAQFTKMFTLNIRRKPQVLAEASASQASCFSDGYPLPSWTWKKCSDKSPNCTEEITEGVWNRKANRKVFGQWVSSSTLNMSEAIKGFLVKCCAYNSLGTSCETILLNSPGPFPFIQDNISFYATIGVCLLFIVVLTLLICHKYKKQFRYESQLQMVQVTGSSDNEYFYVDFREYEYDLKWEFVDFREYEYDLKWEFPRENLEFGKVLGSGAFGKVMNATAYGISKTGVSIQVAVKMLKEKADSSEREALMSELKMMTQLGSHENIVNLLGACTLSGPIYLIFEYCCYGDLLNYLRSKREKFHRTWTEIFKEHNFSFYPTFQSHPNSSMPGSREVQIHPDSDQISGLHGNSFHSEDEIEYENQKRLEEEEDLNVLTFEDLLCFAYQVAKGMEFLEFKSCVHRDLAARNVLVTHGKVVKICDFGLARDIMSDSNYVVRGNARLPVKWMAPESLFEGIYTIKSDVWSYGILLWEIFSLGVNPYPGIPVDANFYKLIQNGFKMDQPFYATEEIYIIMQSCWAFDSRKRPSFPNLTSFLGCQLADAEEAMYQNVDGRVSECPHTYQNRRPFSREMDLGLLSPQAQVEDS
Description: Compounds that have differential activity (more than or equal to 10 fold difference in sensitivity between Flt3+cell lines and Flt3− cell lines are selected for further study.
The cell lines used for the initial screening are sub-lines of Ba/F3 cells that are engineered to over-express mutant or wild-type (non-mutated) Flt3 following infection with a retrovirus expressing appropriate Flt3 cDNAs. The parent cell line, Ba/F3 is dependent on interleukin-3 for proliferation, and when deprived of IL-3, the cells rapidly cease proliferation and die. The retrovirus expresses Flt3 from the retrovirual LTR and the neo gene from an IRES site. Ba/F3 cells are selected in G418 and analyzed for expression of Flt3 by fluorescence activated cell sorting (FACS). Cell lines with two different Flt3 mutations are used. One mutant expresses a Flt-3 that has a 14 amino acid duplication in the juxtamembrane domain encoded by exon 11, the specific duplication being . . . VDFREYEYDLKWEF . . . […]
Yo-Pro-1 iodide (Molecular Probes) is added to the cells at a final concentration of 2.5 μM in NaCl/Na-citrate buffer. The cells are incubated with Yo-Pro for 10 minutes at room temperature and then read on a fluorimeter for determination of cytotoxicity. Next, the cells are lysed with NP40/EDTA/EGTA buffer, incubated at room temperature for 90 minutes and read for the determination of proliferation. […]

[4] = biological target: JAK2 (Homo sapiens, UniProt O60674); experiment: IC50 for JAK2 (method not described)
[5] = biological target: Tel-TRKC (Homo sapiens, UniProt Q16288); experiment: IC50 for Tel-TRKC (method not described)
[6] = biological target: T3, PDGFR-beta (Homo sapiens, UniProt P09619); experiment: IC50 for BaF3/PDGFR-beta (method not described)
T3 construct: expressed in transfected cells; host or cells: BaF3
T3 sequence (P09619 33-1106, species assumed): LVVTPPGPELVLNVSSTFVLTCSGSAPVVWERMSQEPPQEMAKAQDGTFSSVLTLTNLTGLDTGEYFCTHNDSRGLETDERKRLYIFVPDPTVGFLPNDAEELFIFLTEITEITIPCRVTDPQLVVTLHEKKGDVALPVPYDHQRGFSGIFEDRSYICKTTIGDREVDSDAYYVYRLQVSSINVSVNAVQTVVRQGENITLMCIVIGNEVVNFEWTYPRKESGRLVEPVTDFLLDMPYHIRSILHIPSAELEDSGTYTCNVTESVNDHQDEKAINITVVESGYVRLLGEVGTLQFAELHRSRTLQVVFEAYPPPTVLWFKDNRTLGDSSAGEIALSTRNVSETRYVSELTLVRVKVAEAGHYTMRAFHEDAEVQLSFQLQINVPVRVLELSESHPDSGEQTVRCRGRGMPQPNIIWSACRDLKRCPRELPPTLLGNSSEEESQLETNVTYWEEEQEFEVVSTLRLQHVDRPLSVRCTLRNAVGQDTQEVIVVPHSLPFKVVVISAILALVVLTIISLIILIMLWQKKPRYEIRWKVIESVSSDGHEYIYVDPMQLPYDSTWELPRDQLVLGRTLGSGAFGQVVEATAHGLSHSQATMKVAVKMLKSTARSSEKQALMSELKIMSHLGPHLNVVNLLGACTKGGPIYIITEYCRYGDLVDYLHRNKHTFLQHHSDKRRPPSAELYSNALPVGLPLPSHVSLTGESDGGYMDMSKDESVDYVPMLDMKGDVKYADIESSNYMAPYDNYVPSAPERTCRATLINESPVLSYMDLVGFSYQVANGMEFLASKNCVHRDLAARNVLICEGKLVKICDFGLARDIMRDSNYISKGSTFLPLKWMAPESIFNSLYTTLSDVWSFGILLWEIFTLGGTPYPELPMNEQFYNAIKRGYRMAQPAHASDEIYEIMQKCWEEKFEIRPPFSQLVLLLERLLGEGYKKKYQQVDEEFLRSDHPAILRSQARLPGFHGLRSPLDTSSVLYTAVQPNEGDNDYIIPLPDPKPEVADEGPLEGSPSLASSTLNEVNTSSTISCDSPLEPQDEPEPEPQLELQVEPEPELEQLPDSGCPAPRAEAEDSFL

Sequence of FGFR3 (P22607 23-806, species assumed): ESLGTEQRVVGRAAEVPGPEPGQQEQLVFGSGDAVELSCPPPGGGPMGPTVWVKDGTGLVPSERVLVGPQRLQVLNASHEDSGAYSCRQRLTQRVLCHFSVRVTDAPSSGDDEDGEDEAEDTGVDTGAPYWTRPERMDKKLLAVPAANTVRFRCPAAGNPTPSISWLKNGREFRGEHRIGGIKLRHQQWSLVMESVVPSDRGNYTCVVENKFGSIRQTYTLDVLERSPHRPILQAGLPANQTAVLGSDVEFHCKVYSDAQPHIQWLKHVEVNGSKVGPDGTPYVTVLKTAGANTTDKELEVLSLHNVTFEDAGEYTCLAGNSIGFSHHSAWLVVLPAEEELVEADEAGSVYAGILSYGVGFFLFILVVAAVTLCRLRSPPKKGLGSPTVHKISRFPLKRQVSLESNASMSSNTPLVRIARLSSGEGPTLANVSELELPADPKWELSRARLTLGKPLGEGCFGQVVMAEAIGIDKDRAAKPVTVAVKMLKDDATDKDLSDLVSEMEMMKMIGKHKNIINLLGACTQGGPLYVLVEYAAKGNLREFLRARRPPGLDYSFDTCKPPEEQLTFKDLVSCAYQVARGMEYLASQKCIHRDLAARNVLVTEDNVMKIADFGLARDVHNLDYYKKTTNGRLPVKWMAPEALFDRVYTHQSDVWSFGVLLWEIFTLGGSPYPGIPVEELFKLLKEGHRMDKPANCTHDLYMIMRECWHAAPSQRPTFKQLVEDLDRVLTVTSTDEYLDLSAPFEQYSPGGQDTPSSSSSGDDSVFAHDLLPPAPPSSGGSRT
Sequence of Tel-TRKC (Q16288 530-839): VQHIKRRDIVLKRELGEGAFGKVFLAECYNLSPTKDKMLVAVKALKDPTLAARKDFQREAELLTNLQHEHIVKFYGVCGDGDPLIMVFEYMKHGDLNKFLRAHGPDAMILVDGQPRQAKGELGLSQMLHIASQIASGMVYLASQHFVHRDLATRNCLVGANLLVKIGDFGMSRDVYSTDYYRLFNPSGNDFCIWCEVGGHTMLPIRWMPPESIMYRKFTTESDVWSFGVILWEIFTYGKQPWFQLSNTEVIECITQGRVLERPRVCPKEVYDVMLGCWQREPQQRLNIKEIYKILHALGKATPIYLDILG
Sequence of Tel-TRKC (P41212 1-336 partner): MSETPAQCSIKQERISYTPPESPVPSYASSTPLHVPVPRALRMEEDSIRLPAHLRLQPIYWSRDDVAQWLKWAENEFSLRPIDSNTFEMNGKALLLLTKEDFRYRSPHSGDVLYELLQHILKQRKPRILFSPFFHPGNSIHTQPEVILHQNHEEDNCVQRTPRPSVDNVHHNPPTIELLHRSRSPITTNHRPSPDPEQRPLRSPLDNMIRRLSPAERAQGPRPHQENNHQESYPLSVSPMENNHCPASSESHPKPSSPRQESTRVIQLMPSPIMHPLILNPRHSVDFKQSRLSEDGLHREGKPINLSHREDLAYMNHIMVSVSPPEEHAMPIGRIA
Sequence of JAK2 (O60674 whole entry, species assumed): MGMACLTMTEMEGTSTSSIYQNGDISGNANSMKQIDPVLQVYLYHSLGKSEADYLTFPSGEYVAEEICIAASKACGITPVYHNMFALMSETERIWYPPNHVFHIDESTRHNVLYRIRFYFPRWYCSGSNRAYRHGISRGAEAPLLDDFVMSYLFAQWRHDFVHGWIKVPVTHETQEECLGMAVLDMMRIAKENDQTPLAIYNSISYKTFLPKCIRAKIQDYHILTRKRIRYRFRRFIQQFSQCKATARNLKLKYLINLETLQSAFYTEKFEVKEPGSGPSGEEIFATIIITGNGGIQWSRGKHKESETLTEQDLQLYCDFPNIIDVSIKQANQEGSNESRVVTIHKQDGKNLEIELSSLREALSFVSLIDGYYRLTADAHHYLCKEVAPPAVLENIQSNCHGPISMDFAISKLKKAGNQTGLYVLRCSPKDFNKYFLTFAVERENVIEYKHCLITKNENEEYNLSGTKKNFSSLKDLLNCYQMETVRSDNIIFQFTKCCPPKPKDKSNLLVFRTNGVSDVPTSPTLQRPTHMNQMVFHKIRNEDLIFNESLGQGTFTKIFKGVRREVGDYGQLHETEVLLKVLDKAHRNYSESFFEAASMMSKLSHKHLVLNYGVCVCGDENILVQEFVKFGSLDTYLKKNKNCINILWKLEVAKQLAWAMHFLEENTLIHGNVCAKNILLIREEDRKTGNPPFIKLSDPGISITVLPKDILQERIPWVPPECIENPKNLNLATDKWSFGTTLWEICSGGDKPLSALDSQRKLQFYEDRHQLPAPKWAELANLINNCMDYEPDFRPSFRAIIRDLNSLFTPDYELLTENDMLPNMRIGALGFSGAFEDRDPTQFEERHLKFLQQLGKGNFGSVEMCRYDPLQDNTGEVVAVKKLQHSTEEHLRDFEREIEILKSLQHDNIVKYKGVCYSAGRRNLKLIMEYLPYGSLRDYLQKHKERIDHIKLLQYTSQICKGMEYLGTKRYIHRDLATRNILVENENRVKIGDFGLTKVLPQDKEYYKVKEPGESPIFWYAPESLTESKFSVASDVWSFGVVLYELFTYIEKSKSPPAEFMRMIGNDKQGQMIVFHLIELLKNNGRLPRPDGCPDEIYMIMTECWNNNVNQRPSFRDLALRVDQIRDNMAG

Compound: COc1ccc(Nc2ncc3ccn(-c4ccnc(Cl)c4)c3n2)c(C)c1 [example 47, [7-(2-Chloro-pyridin-4-yl)-7H-pyrrolo[2,3-d]pyrimidin-2-yl]-(4-methoxy-2-methyl-phenyl)-amine]
IC50 [1]: 408 nM

Compound: COc1cc(Nc2ncc3c(n2)N(c2ccccn2)CC3)cc(OC)c1OC [example 61, (7-Pyridin-2-yl-6,7-dihydro-5H-pyrrolo[2,3-d]pyrimidin-2-yl)-(3,4,5-trimethoxy-phenyl)-amine]
IC50 [2]: 284 nM

Compound: COc1cc(Nc2ncc3ccn(-c4cccc(CCC#N)c4)c3n2)cc(OC)c1OC [example 85, 3-{3-[2-(3,4,5-Trimethoxy-phenylamino)-pyrrolo[2,3-d]pyrimidin-7-yl]-phenyl}-propionitrile]
IC50 [3]: 16 nM

Other lines, results leading:

IC50 [2]: 282 nM
IC50 [4]: 342 nM
IC50 [3]: 29 nM
IC50 [5]: 479 nM
IC50 ([6]; read-out: IC50 for PDGFR-beta): 33 nM
Compound: COc1cc(Nc2ncc3ccn(-c4cccc(CC#N)c4)c3n2)cc(OC)c1OC [example 104, {3-[2-(3,4,5-Trimethoxy-phenylamino)-pyrrolo[2,3-d]pyrimidin-7-yl]-phenyl}-acetonitrile]

IC50 ([6]; BaF3/PDGFR-beta, read-out: IC50 for BaF3/PDGFR-beta): 29 nM
Compound: COc1cc(Nc2ncc3ccn(-c4cccc(Cc5nnnn5C)c4)c3n2)cc(OC)c1OC [example 120, {7-[3-(1-Methyl-1H-tetrazol-5-ylmethyl)-phenyl]-7H-pyrrolo[2,3-d]pyrimidin-2-yl}-(3,4,5-trimethoxy-phenyl)-amine]
